In patent US20230257372A1 (CHONG KUN DANG PHARMACEUTICAL CORP., priority 2020, published 2023):
Where two headings read alike, the source gives them in different places.

Assays:
[1] = target: T1, human recombinant HDAC1 (Homo sapiens, UniProt Q13547); assay: HDAC1 enzyme activity inhibition (HDAC Fluorimetric Drug Discovery Kit); format: biochemical; settings: read-out: HDAC1
T1 construct: purchased Enzo Life Science, Inc. BML-SE456
Summary of the method: (§1)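 Compounds in 5-fold dilution series were incubated with […] enzyme and 10 μM substrate at 30° C for 60 minutes. Fluor de Lys Developer II was then added for 30 minutes to stop the reaction and develop the fluorescent signal.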

[2] = target: T2, human recombinant HDAC6 (Homo sapiens, UniProt Q9UBN7); assay: HDAC6 enzyme activity inhibition (HDAC Fluorimetric Drug Discovery Kit); format: biochemical
T2 construct: purchased Calbiochem Inc. 382180
T2 sequence (Q9UBN7 1-1215): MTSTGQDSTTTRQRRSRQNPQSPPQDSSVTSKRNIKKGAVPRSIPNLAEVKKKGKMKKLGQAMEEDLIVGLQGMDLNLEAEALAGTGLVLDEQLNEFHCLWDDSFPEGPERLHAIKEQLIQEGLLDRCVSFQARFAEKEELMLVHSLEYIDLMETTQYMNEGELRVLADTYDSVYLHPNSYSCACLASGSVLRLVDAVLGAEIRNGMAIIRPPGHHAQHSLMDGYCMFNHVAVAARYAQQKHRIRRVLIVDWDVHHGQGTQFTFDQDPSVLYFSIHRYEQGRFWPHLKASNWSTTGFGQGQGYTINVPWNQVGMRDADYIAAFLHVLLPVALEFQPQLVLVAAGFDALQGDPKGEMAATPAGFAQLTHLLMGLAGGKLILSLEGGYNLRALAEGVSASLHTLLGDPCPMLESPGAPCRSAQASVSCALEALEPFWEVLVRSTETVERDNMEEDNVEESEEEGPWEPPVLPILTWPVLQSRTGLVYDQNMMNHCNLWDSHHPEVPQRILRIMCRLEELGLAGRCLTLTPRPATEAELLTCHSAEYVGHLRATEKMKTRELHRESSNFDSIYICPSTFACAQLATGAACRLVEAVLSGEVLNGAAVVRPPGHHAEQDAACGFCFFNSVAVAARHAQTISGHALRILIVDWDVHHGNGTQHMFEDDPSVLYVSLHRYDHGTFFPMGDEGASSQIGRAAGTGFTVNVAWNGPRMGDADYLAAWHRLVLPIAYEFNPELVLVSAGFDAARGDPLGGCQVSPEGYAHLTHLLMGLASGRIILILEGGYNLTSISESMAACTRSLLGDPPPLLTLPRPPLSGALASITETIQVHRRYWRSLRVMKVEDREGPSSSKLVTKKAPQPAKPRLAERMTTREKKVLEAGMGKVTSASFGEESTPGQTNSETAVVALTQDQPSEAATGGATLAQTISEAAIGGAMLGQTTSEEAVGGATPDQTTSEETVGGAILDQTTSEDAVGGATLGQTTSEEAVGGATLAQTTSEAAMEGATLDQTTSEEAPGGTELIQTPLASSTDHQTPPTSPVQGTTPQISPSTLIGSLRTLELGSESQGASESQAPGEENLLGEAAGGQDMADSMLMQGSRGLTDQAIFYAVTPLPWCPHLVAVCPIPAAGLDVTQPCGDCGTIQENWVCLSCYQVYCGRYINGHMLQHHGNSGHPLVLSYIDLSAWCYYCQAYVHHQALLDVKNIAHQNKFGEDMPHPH
Summary of the method: as §1

[3] = tested on: hippocampal neurons from a Sprague-Dawley (SD) rat fetus; assay: Effect of HDAC6-specific inhibitor on axonal transport of mitochondria in amyloid-beta treated neurons; format: cell-based; settings: transport velocity of mitochondria in neuronal axon after normalization; vehicle = 100%, amyloid beta treatment group = 0%; compound treatment for three hours
Summary of the method: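 Rat E17-18 hippocampal neurons exposed to amyloid-beta fragments […]; after 24 h (day 8 in vitro) compound added for 3 h, mitochondria stained with MitoTracker Red CMXRos. Confocal imaging every 1 s for 1 min gave per-mitochondrion velocity, normalized vehicle = 100%, amyloid-beta = 0%.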

[4] = human recombinant HDAC1, IC50 calculated with GraphPad Prism
[5] = human recombinant HDAC6, IC50 calculated with GraphPad Prism
[6] = human recombinant HDAC1, Fluor de Lys substrate, 30° C. 60 minutes
[7] = human recombinant HDAC6, same protocol as HDAC1

T1 sequence (Q13547 whole entry): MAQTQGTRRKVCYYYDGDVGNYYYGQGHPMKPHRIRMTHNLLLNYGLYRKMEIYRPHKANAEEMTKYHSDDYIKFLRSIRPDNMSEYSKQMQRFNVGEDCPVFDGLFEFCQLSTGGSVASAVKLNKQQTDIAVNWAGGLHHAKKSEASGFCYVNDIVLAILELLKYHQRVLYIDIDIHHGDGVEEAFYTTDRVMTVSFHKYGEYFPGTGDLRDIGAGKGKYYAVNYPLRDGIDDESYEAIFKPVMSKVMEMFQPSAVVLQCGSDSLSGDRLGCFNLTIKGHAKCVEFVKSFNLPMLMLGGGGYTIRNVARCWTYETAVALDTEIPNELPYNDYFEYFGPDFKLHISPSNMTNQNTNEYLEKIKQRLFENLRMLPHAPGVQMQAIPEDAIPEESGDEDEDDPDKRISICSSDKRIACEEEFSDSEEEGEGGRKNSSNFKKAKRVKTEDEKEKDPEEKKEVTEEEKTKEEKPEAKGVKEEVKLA

| Compound | IC50 [1, 4] [nM] | HDAC6 selectivity (fold) ([2]; HDAC1 IC50 / HDAC6 IC50) | IC50 [2, 5] [nM] | Velocity distribution (%) [3] | IC50 [1, 6] [nM] | HDAC6 selectivity (fold) ([2]; HDAC6 over HDAC1) | IC50 [2, 7] [nM] |
| --- | --- | --- | --- | --- | --- | --- | --- |
| Fc1cc(-c2nnc(C(F)F)o2)ccc1Cn1cc(-c2ccc3c(c2)CCN(C2CCC2)C3)nn1 [Compound 4361, 2-(4-((4-(2-cyclobutyl-1,2,3,4-tetrahydroisoquinolin-6-yl)-1H-1,2,3-triazol-1-yl)methyl)-3-fluorophenyl)-5-(difluoromethyl)-1,3,4-oxadiazole] | > 50000 | 668 | 74.8 | ** (**, 50%˜100%) | – | – | – |
| FC(F)c1nnc(-c2ccc(Cn3cc(-c4cccc(N5CCOCC5)c4)nn3)nc2)o1 [Compound 3866, 4-(3-(1-((5-(5-(difluoromethyl)-1,3,4-oxadiazol-2-yl)pyridin-2-yl)methyl)-1H-1,2,3-triazol-4-yl)phenyl)morpholin] | > 50000 | 2688 | 18.6 | ** (**, 50%˜100%) | – | – | – |
| CC(C)N1CCC(c2cccc(-c3cn(Cc4ccc(-c5nnc(C(F)F)o5)cn4)nn3)c2)CC1 [Compound 4012, 2-(difluoromethyl)-5-(6-((4-(3-(1-isopropylpiperidin-4-yl)phenyl)-1H-1,2,3-triazol-1-yl)methyl)pyridin-3-yl)-1,3,4-oxadiazole] | > 50000 | 2358 | 21.2 | *** (***, >100%) | – | – | – |
| COC(=O)Nc1cccc(-c2cn(Cc3ccc(-c4nnc(C(F)F)o4)cc3F)nn2)c1 [Compound 3776, Methyl (3-(1-(4-(5-(difluoromethyl)-1,3,4-oxadiazol-2-yl)-2-fluorobenzyl)-1H-1,2,3-triazol-4-yl)phenyl)carbamate] | > 50000 | 1984 | 25.2 | *** (***, >100%) | – | – | – |
| Fc1cc(-c2nnc(C(F)F)o2)ccc1Cn1cc(-c2cn3ccccc3n2)nn1 [Compound 17201, 2-(difluoromethyl)-5-(3-fluoro-4-((4-(imidazo[1,2-a]pyridin-2-yl)-1H-1,2,3-triazol-1-yl)methyl)phenyl)-1,3,4-oxadiazole] | – | – | – | * (*, 0%˜50%) | > 50000 | 639 | 78.2 |
| CC1CCN(Cc2ccc(-c3cn(Cc4ncc(-c5nnc(C(F)F)o5)cc4F)nn3)cc2)CC1 [Compound 18307, 2-(difluoromethyl)-5-(5-fluoro-6-((4-(4-((4-methylpiperidin-1-yl)methyl)phenyl)-1H-1,2,3-triazol-1-yl)methyl)pyridin-3-yl)-1,3,4-oxadiazole] | – | – | – | *** (***, >100%) | > 50000 | 1028 | 48.6 |
| Fc1ccccc1-c1cn(Cc2ccc(-c3nnc(C(F)F)o3)cn2)nn1 [Compound 3853, 2-(difluoromethyl)-5-(6-((4-(2-fluorophenyl)-1H-1,2,3-triazol-1-yl)methyl)pyridin-3-yl)-1,3,4-oxadiazole] | > 50000 | 1612 | 31 | ** (**, 50%˜100%) | – | – | – |
| FC(F)c1nnc(-c2ccc(Cn3cc(-c4ccc5c(CN6CCOCC6)c[nH]c5c4)nn3)nc2)o1 [Compound 3944, 4-((6-(1-((5-(5-(difluoromethyl)-1,3,4-oxadiazol-2-yl)pyridin-2-yl)methyl)-1H-1,2,3-triazol-4-yl)-1H-indol-3-yl)methyl)morpholine] | > 50000 | 7462 | 6.7 | * (*, 0%˜50%) | – | – | – |
| CN1CCN(c2ccc(-c3cn(Cc4ccc(-c5nnc(C(F)F)o5)cn4)nn3)cc2)CC1 [Compound 4107, 2-(difluoromethyl)-5-(6-((4-(4-(4-methylpiperazin-1-yl)phenyl)-1H-1,2,3-triazol-1-yl)methyl)pyridin-3-yl)-1,3,4-oxadiazole] | > 50000 | 1256 | 39.8 | ** (**, 50%˜100%) | – | – | – |
| FC(F)c1nnc(-c2ccc(Cn3cc(-c4ccccc4)nn3)nc2)o1 [Compound 3736, 2-(difluoromethyl)-5-(6-((4-phenyl-1H-1,2,3-triazol-1-yl)methyl)pyridin-3-yl)-1,3,4-oxadiazole] | > 50000 | 2252 | 22.2 | *** (***, >100%) | – | – | – |
| Cc1cc2cc(-c3cn(Cc4ccc(-c5nnc(C(F)F)o5)cn4)nn3)ccc2[nH]1 [Compound 4289, 2-(difluoromethyl)-5-(6-((4-(2-methyl-1H-indol-5-yl)-1H-1,2,3-triazol-1-yl)methyl)pyridin-3-yl)-1,3,4-oxadiazole] | > 50000 | 416 | 12 | *** (***, >100%) | – | – | – |
| FC(F)c1nnc(-c2ccc(Cn3cc(-c4cccc5[nH]ncc45)nn3)nc2)o1 [Compound 4346, 2-(6-((4-(1H-indazol-4-yl)-1H-1,2,3-triazol-1-yl)methyl)pyridin-3-yl)-5-(difluoromethyl)-1,3,4-oxadiazole] | > 50000 | 9090 | 5.5 | *** (***, >100%) | – | – | – |
| Fc1cc(-c2nnc(C(F)F)o2)ccc1Cn1cc(-c2ccc3[nH]ccc3c2)nn1 [Compound 4135, 2-(4-((4-(1H-indol-5-yl)-1H-1,2,3-triazol-1-yl)methyl)-3-fluorophenyl)-5-(difluoromethyl)-1,3,4-oxadiazole] | > 50000 | 2941 | 16.7 | ** (**, 50%˜100%) | – | – | – |
| CCn1ccc2ccc(-c3cn(Cc4ccc(-c5nnc(C(F)F)o5)cn4)nn3)cc21 [Compound 4136, 2-(difluoromethyl)-5-(6-((4-(1-ethyl-1H-indol-6-yl)-1H-1,2,3-triazol-1-yl)methyl)pyridin-3-yl)-1,3,4-oxadiazole] | > 50000 | 2873 | 17.4 | ** (**, 50%˜100%) | – | – | – |
| FC(F)c1nnc(-c2ccc(Cn3cc(-c4cnc5[nH]ccc5c4)nn3)nc2)o1 [Compound 3841, 2-(6-((4-(1H-pyrrolo[2,3-b]pyridin-5-yl)-1H-1,2,3-triazol-1-yl)methyl)pyridin-3-yl)-5-(difluoromethyl)-1,3,4-oxadiazole] | > 50000 | 5952 | 8.4 | *** (***, >100%) | – | – | – |
| CC(C)N1CCN(c2cccc(-c3cn(Cc4ccc(-c5nnc(C(F)F)o5)cn4)nn3)c2)CC1 [Compound 4070, 2-(difluoromethyl)-5-(6-((4-(3-(4-isopropylpiperazin-1-yl)phenyl)-1H-1,2,3-triazol-1-yl)methyl)pyridin-3-yl)-1,3,4-oxadiazole] | > 50000 | 1298 | 38.5 | ** (**, 50%˜100%) | – | – | – |
| FC(F)c1nnc(-c2ccc(Cn3cc(-c4cncc(Cl)c4)nn3)nc2)o1 [Compound 3883, 2-(6-((4-(5-chloropyridin-3-yl)-1H-1,2,3-triazol-1-yl)methyl)pyridin-3-yl)-5-(difluoromethyl)-1,3,4-oxadiazole] | > 50000 | 1474 | 33.9 | * (*, 0%˜50%) | – | – | – |
| FC(F)c1nnc(-c2ccc(Cn3cc(-c4ccc5cc[nH]c5c4)cn3)nc2)o1 [Compound 4208] | > 50000 | 1479 | 33.8 | ** (**, 50%˜100%) | – | – | – |
